One may read the pIC50 as −log10 of the IC50, conventionally taken in molar units. A low value points to a large IC50.

The text below walks through data of patent US20110177105A1, “Novel Selective Inhibitors of Ubiquitin Specific Protease 7, the Pharmaceutical Compositions Thereof and Their Therapeutic Applications” (priority 2010, published 2011).

One test has as its target T1, UCH-L1 (Homo sapiens, UniProt P09936).
T1 sequence (P09936 1-223): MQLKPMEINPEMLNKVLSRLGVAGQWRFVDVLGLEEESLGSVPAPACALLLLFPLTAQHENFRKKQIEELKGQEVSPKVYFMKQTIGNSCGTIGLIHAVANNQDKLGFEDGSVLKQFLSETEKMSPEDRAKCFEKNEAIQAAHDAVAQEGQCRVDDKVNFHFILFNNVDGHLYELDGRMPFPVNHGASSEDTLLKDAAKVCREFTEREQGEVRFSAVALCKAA
As to the kind of experiment: UCH-L1 activity assay (Ub-AMC). The test is classed as biochemical. As to conditions: 300 nM Ub-AMC, 2.5 nM enzyme. As to the method:
UCH-L1 was diluted in USP buffer (50 mM Tris HCl; 0.5 mM EDTA; 5 mM DTT; 0.01% Triton X-100; Bovine Serum Albumin 0.05 mg·ml^−1 pH 7.6). Compounds stocks (100 mM) were stored at −20° C. in DMSO. Compounds were tested at different concentrations: from 200 μM to 91 nM.
(§1) Reactions were performed as duplicates in Black 384 well plates (small volume microplates; Greiner; 10 μl final reaction volume). The substrate concentration for UCH-L1 was 300 nM Ub-AMC (Boston Biochem). The concentration of the enzyme (UCH-L1) in specificity assays was 2.5 nM. The concentrations were determined in order to perform specificity assays under initial velocities at fixed substrate concentration. Compounds were pre-incubated with enzymes for 30 minutes at 25° C. Reactions were initiated by addition of substrate to the plates containing the enzymes (+/−compounds) diluted in assay buffer. Reactions were incubated for 60 minutes at 37° C. Reactions were stopped by adding acetic acid (100 mM final). Readings were performed on a Pherastar Fluorescent Reader (BMG). λ Emission 380 nm; λ Excitation=460 nm. Data (mean values+/−standard deviation) were analyzed as % of control (no compound) and plotted as percentage versus the Log of the compound concentration using GraphPad (Prism). Data were fitted to a sigmoidal model (variable slope).

The next test concerns the target T2, Caspase 3 (Homo sapiens, UniProt P42574).
T2 sequence (P42574 29-175 limits assumed): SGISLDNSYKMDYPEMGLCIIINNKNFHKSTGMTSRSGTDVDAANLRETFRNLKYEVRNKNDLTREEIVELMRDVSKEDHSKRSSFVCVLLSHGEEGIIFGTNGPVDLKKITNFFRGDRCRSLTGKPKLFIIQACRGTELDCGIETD
T2 sequence (P42574 176-277 limits assumed): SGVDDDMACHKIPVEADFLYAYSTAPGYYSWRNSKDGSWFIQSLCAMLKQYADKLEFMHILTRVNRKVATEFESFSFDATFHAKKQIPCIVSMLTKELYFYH
As to the kind of experiment: Caspase 3 activity assay (Ac-DEVD-AMC). In kind it is biochemical. The following applies: 250 nM Ac-DEVD-AMC, 1.6 nM enzyme. As to the method: Caspase 3 was diluted in Caspase 3 buffer (100 mM Hepes pH 7.5; 10% sucrose; 0.1% CHAPS). Compounds stocks (100 mM) were stored at −20° C. in DMSO. Compounds were tested at different concentrations: from 200 μM to 91 nM.
as §1, with “caspase 3 specificity assay” for “UCH-L1”, “250” for “300”, “(Ac-DEVD-AMC; Promega).” for “Ub-AMC (Boston Biochem).”, “(Caspase 3)” for “(UCH-L1)”, “1.6” for “2.5”

pIC50: −log10 of the molar value.

Regarding `CCCN(CCC)CCCNC(=O)c1ccc2c(Cl)c3c(nc2c1)CCCC3` [Example 6, 9-Chloro-5,6,7,8-tetrahydro-acridine-3-carboxylic acid (3-dipropylamino-propyl)-amide], the pIC50 at UCH-L1 and on Caspase 3 was less than 3.70 in each case.
As for `CCCCN(CC)CCNC(=O)c1ccc2c(Cl)c3c(nc2c1)CCCC3` [Example 4, 9-Chloro-5,6,7,8-tetrahydro-acridine-3-carboxylic acid [2-(butyl-ethyl-amino)-ethyl]-amide], the pIC50 against UCH-L1 and against Caspase 3 was less than 3.70 in each case.
Consider `CN(CCCNC(=O)c1ccc2c(Cl)c3c(nc2c1)CCCC3)Cc1ccccc1` [Example 14, 9-Chloro-5,6,7,8-tetrahydro-acridine-3-carboxylic acid [3-(benzyl-methyl-amino)-propyl]-amide], for which the pIC50 against UCH-L1 and on Caspase 3 was less than 3.70 in each case.
Consider `CCN(CCCNC(=O)c1ccc2c(Cl)c3c(nc2c1)CCCC3)Cc1ccccc1` [Example 5, 9-Chloro-5,6,7,8-tetrahydro-acridine-3-carboxylic acid [3-(benzyl-ethyl-amino)-propyl]-amide], for which the pIC50 on UCH-L1 and against Caspase 3 was less than 3.70 each time.
Turning to `O=C(NCCCN1CCCC1)c1ccc2c(Cl)c3c(nc2c1)CCCC3` [Example 8, 9-Chloro-5,6,7,8-tetrahydro-acridine-3-carboxylic acid (3-pyrrolidin-1-yl-propyl)-amide], the pIC50 at UCH-L1 and against Caspase 3 was less than 3.70 in each case.
As for `CCCN1CCN(CCCNC(=O)c2ccc3c(Cl)c4c(nc3c2)CCCC4)CC1` [Example 13, 9-Chloro-5,6,7,8-tetrahydro-acridine-3-carboxylic acid [3-(4-propyl-piperazin-1-yl)-propyl]-amide], the pIC50 on UCH-L1 and against Caspase 3 was less than 3.70 throughout.
Consider `Cc1cccc(CN2CCC(CNC(=O)c3ccc4c(Cl)c5c(nc4c3)CCCC5)CC2)c1` [Example 1, 9-Chloro-5,6,7,8-tetrahydro-acridine-3-carboxylic acid [1-(3-methyl-benzyl)-piperidin-4-ylmethyl]-amide], for which the pIC50 against UCH-L1 and against Caspase 3 was less than 3.70 throughout.
Regarding `CCN(CC)CCCNC(=O)c1ccc2c(Cl)c3c(nc2c1)CCCC3` [Example 10, 9-Chloro-5,6,7,8-tetrahydro-acridine-3-carboxylic acid (3-diethylamino-propyl)-amide], the pIC50 against UCH-L1 and at Caspase 3 was less than 3.70 in each case.
Take `O=C(c1ccc2c(Cl)c3c(nc2c1)CCCC3)N1CCC(N2CCCCC2)CC1` [Example 16, [1,4′]Bipiperidinyl-1′-yl-(9-chloro-5,6,7,8-tetrahydro-acridin-3-yl)-methanone]: the pIC50 at UCH-L1 and at Caspase 3 was less than 3.70 each time.
On to `CCN(CC)CCNC(=O)c1ccc2c(Cl)c3c(nc2c1)CCCC3` [Example 7, 9-Chloro-5,6,7,8-tetrahydro-acridine-3-carboxylic acid (2-diethylamino-ethyl)-amide], for which the pIC50 against UCH-L1 and on Caspase 3 was less than 3.70 throughout.
Consider `CC1CCCC(C)N1CCCNC(=O)c1ccc2c(Cl)c3c(nc2c1)CCCC3` (centres unmarked) [Example 9, 9-Chloro-5,6,7,8-tetrahydro-acridine-3-carboxylic acid [3-(2,6-dimethyl-piperidin-1-yl)-propyl]-amide], for which the pIC50 at UCH-L1 and on Caspase 3 was less than 3.70 each time.
`CCCN(CCC)CCNC(=O)c1ccc2c(Cl)c3c(nc2c1)CCCC3` [Example 3, 9-Chloro-5,6,7,8-tetrahydro-acridine-3-carboxylic acid (2-dipropylamino-ethyl)-amide]: the pIC50 at UCH-L1 and against Caspase 3 was less than 3.70 each time.
Take `CN(C)CCNC(=O)c1ccc2c(Cl)c3c(nc2c1)CCCC3` [Example 11, 9-Chloro-5,6,7,8-tetrahydro-acridine-3-carboxylic acid (2-dimethylamino-ethyl)-amide]: the pIC50 against UCH-L1 and against Caspase 3 was less than 3.70 throughout.
For the compound `O=C(c1ccc2c(Cl)c3c(nc2c1)CCCC3)N1CCCCCC1` [Example 12, Azepan-1-yl-(9-chloro-5,6,7,8-tetrahydro-acridin-3-yl)-methanone], the pIC50 at UCH-L1 and against Caspase 3 was less than 3.70 each time.
In the case of `CCN1CCCC1CNC(=O)c1ccc2c(Cl)c3c(nc2c1)CCCC3` (centres unmarked) [Example 2, 9-Chloro-5,6,7,8-tetrahydro-acridine-3-carboxylic acid (1-ethyl-pyrrolidin-2-ylmethyl)-amide], the pIC50 against UCH-L1 and against Caspase 3 was less than 3.70 in each case.
For the compound `CN1CCN(CCCNC(=O)c2ccc3c(Cl)c4c(nc3c2)CCCC4)CC1` [Example 15, 9-Chloro-5,6,7,8-tetrahydro-acridine-3-carboxylic acid [3-(4-methyl-piperazin-1-yl)-propyl]-amide], the negative-log IC50 (pIC50) on UCH-L1 and against Caspase 3 was less than 3.70 each time.
